Laboratory results reported in patent US11952365B2, “Anti-viral compounds” (Aligos Therapeutics, Inc., priority 2020, dated 2024).
Read-outs that look alike come from different tables or passages of the source.

Experiments:
[1] = tested on: human beta-coronavirus OC43; assay: microbe, parasite or virus in culture; format: cell-based; conditions: Betacoronavirus 1, OC43, HeLa, 144 h
3CLpro = 3CLpro (Severe acute respiratory syndrome coronavirus 2, UniProt P0DTD1); assay: SARS-CoV-2 3CLpro protease assay (duplex, SAMDI-MS); format: biochemical; design: For the duplex assay, 3CLpro and HRV3C was added; conditions: 30 mins preincubation, class symbols
[2] = tested on: SARS-CoV-2-GHB-03021/2020; assay: microbe, parasite or virus in culture; format: cell-based; conditions: Severe acute respiratory syndrome coronavirus 2, Vero C1008, 96 h; read-out: VeroE6 + CP (EC50)
human cathepsin L = target: T1, human cathepsin L (Homo sapiens, UniProt P07711); assay: cathepsin L assay; format: biochemical; conditions: 10 pM human cathepsin L, Z-FR-AMC 2 μM
T1 construct: purchased R&D Systems
In short: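 Human cathepsin L at 10 pM was preincubated 30 min with compound, then reaction started with Z-FR-AMC (2 μM final). Fluorescence (355/460 nm) read every 2 min for 30 min; IC50 from four-parameter curve fit.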

in vitro [3] = conditions: human
[4] = Cytotoxicity plates without OC43 virus (cell-titer-glo); format: cell-based, human; conditions: human; HeLa cells without OC43 virus, class symbols
In short: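 HeLa cells seeded overnight, then treated with serially diluted compounds in 2% FBS EMEM, uninfected, in parallel with the OC43 antiviral plates. Incubated 6 days at 33 °C; viability read by CellTiter-Glo luminescence.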

in vitro [5] = conditions: African green monkey, VeroE6 + CP (CC50), Vero E6-eGFP cells with CP-100356, absence of virus, MTS; numeric bounds
HRV3C = HRV3C (Human rhinovirus 14, UniProt P03303); assay: HRV3C protease assay (duplex, SAMDI-MS); format: biochemical, HRV
In short: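 Enzyme preincubated 30 min with compound at ambient temperature, then both biotinylated peptide substrates added (duplex with 3CLpro); 30 min reaction quenched with 0.5% formic acid (final). Product read by SAMDI-MS as product/internal-standard AUC ratio; IC50 from four-parameter fit.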

[6] = tested on: SARS-CoV-2-GHB-03021/2020; assay: SARS-CoV-2 Infection Model in Huh7 Cells; format: cell-based; conditions: Severe acute respiratory syndrome coronavirus 2, Huh-7, 96 h, SARS-CoV-2, day 4 p.i., MTS
[7] = OC43 in HeLa cells, 6 days at 33° C., class symbols, read-out: EC50
[8] = 3CLpro, read-out: SARS-Cov-2 IC50
[9] = HRV3C, 30 mins preincubation, bound, read-out: HRV IC50
[10] = HRV IC50, HRV3C, 30 mins preincubation, class symbols
[11] = HRV3C, 30 mins preincubation, class symbols, read-out: HRV IC50

| SMILES | EC50 [1, 7] [nM] | IC50 (3CLpro; [8]) [nM] | EC50 [2] [µM] | IC50 (human cathepsin L; class symbols) [µM] | CC50 (in vitro [3]) [µM] | CC50 at 6 days [4] [µM] | CC50 (in vitro [5]) [µM] | IC50 (HRV3C; HRV3C, printed bound without unit, read-out: HRV IC50) [µM] | EC50 ([6]; class symbols) [µM] | IC50 (human cathepsin L; bound) [µM] | IC50 (HRV3C; [9]) [µM] | EC50 [1] [nM] | IC50 (HRV3C; [10]) [µM] | IC50 (HRV3C; [11]) [µM] | EC50 ([1]; OC43 in HeLa cells, 6 days at 33° C., bound, read-out: EC50) [nM] | EC50 ([6]; numeric bounds) [µM] | IC50 (3CLpro; SARS-Cov-2 IC50, 3CLpro) [nM] | IC50 (HRV3C; HRV IC50, HRV3C, 30 mins preincubation, bound) [µM] |
| --- | --- | --- | --- | --- | --- | --- | --- | --- | --- | --- | --- | --- | --- | --- | --- | --- | --- | --- |
| COc1cccc2[nH]c(C(=O)N3C[C@@H]4CCC[C@@H]4[C@H]3C(=O)N[C@@H](C[C@H]3CC(C)(C)NC3=O)C(=O)CO)cc12 [Compound 70_2] | 1000 to 10000 | 200 to 2000 | 10 to 100 | ≥ 10 | > 50 | > 10 | > 50 | > 10 | 10 to 100 | – | – | – | – | – | – | – | – | – |
| COc1cccc2sc(C(=O)N3C[C@@H]4CCC[C@@H]4[C@H]3C(=O)N[C@@H](C[C@@H]3CCNC3=O)C(=O)CO)cc12 [Compound 72, (1S,3aR,6aS)—N-[(2S)-4-hydroxy-3-oxo-1-[(3S)-2-oxopyrrolidin-3-yl]butan-2-yl]-2-(4-methoxy-1-benzothiophene-2-carbonyl)-hexahydro-1H-cyclopenta[c]pyrrole-1-carboxamide] | 100 to 1000 | 200 to 2000 | 1 to 10 | – | > 100 | > 10 | > 100 | – | 1 to 10 | > 3.3 | > 10 | – | – | – | – | – | – | – |
| O=C1NCC[C@H]1C[C@H](NC(=O)[C@@H]1[C@H]2CCC[C@H]2CN1C(=O)c1cc(-c2ccccc2)c[nH]1)C(=O)CO [Compound 79, (1S,3aR,6aS)—N—((S)-4-hydroxy-3-oxo-1-((S)-2-oxopyrrolidin-3-yl)butan-2-yl)-2-(4-phenyl-1H-pyrrole-2-carbonyl)octahydrocyclopenta[c]pyrrole-1-carboxamide] | – | 20 to 200 | 1 to 10 | ≥ 10 | > 50 | > 10 | > 50 | – | 1 to 10 | – | – | 100 to 1000 | 2 to 20 | – | – | – | – | – |
| O=C1NCC[C@H]1C[C@H](NC(=O)[C@@H]1[C@H]2CCC[C@H]2CN1C(=O)c1cc2ccsc2[nH]1)C(=O)CO [Compound 80, (1S,3aR,6aS)—N-[(2S)-4-hydroxy-3-oxo-1-[(3S)-2-oxopyrrolidin-3-yl]butan-2-yl]-2-{6H-thieno[2,3-b]pyrrole-5-carbonyl}-hexahydro-1H-cyclopenta[c]pyrrole-1-carboxamide] | – | 20 to 200 | 1 to 10 | ≥ 10 | > 50 | > 10 | > 50 | – | 1 to 10 | – | – | 1000 to 10000 | 2 to 20 | – | – | – | – | – |
| COc1ccc2[nH]c(C(=O)N3C[C@@H]4CCC[C@@H]4[C@H]3C(=O)N[C@@H](C[C@@H]3CCNC3=O)C(=O)CO)cc2c1OC [Compound 81, (1S,3aR,6aS)-2-(4,5-dimethoxy-1H-indole-2-carbonyl)-N-[(2S)-4-hydroxy-3-oxo-1-[(3S)-2-oxopyrrolidin-3-yl]butan-2-yl]-hexahydro-1H-cyclopenta[c]pyrrole-1-carboxamide] | 1000 to 10000 | 20 to 200 | 1 to 10 | ≥ 10 | > 50 | > 10 | > 50 | – | 10 to 100 | – | – | – | – | 2 to 20 | – | – | – | – |
| O=C1NCC[C@H]1C[C@H](NC(=O)[C@@H]1[C@H]2CCC[C@H]2CN1C(=O)c1cc(S(=O)(=O)c2ccccc2)c[nH]1)C(=O)CO [Compound 82, (1S,3aR,6aS)-2-[4-(benzenesulfonyl)-1H-pyrrole-2-carbonyl]-N-[(2S)-4-hydroxy-3-oxo-1-[(3S)-2-oxopyrrolidin-3-yl]butan-2-yl]-hexahydro-1H-cyclopenta[c]pyrrole-1-carboxamide] | – | 20 to 200 | 10 to 100 | ≥ 10 | > 50 | > 10 | > 50 | – | – | – | – | – | – | 2 to 20 | > 10000 | > 50 | – | – |
| O=C1NCC[C@H]1C[C@H](NC(=O)[C@@H]1[C@H]2CCC[C@H]2CN1C(=O)c1cc2c([nH]1)CCCC2)C(=O)CO [Compound 83, (1S,3aR,6aS)—N-[(2S)-4-hydroxy-3-oxo-1-[(3S)-2-oxopyrrolidin-3-yl]butan-2-yl]-2-(4,5,6,7-tetrahydro-1H-indole-2-carbonyl)-hexahydro-1H-cyclopenta[c]pyrrole-1-carboxamide] | 100 to 1000 | 20 to 200 | < 1 | ≥ 10 | > 50 | > 10 | > 50 | – | < 1 | – | > 10 | – | – | – | – | – | – | – |
| O=C(c1ccccc1)c1c[nH]c(C(=O)N2C[C@@H]3CCC[C@@H]3[C@H]2C(=O)N[C@@H](C[C@@H]2CCNC2=O)C(=O)CO)c1 [Compound 84, (1S,3aR,6aS)-2-(4-benzoyl-1H-pyrrole-2-carbonyl)-N-[(2S)-4-hydroxy-3-oxo-1-[(3S)-2-oxopyrrolidin-3-yl]butan-2-yl]-hexahydro-1H-cyclopenta[c]pyrrole-1-carboxamide] | 1000 to 10000 | 20 to 200 | 1 to 10 | ≥ 10 | > 50 | > 10 | > 50 | – | – | – | – | – | – | 2 to 20 | – | > 50 | – | – |
| CCOC(=O)c1cc(C(=O)N2C[C@@H]3CCC[C@@H]3[C@H]2C(=O)N[C@@H](C[C@@H]2CCNC2=O)C(=O)CO)[nH]c1C [Compound 85, ethyl 5-[(1S,3aR,6aS)-1-{[(2S)-4-hydroxy-3-oxo-1-[(3S)-2-oxopyrrolidin-3-yl]butan-2-yl]carbamoyl}-hexahydro-1H-cyclopenta[c]pyrrole-2-carbonyl]-2-methyl-1H-pyrrole-3-carboxylate] | 1000 to 10000 | 20 to 200 | 1 to 10 | ≥ 10 | > 50 | > 10 | > 50 | – | 10 to 100 | – | – | – | – | 2 to 20 | – | – | – | – |
| CC(=O)c1c[nH]c(C(=O)N2C[C@@H]3CCC[C@@H]3[C@H]2C(=O)N[C@@H](C[C@@H]2CCNC2=O)C(=O)CO)c1 [Compound 86, (1S,3aR,6aS)-2-(4-acetyl-1H-pyrrole-2-carbonyl)-N-[(2S)-4-hydroxy-3-oxo-1-[(3S)-2-oxopyrrolidin-3-yl]butan-2-yl]-hexahydro-1H-cyclopenta[c]pyrrole-1-carboxamide] | 1000 to 10000 | 20 to 200 | 10 to 100 | ≥ 10 | > 50 | > 10 | > 50 | – | 10 to 100 | – | – | – | – | 2 to 20 | – | – | – | – |
| O=C1NCC[C@H]1C[C@H](NC(=O)[C@@H]1[C@H]2CCC[C@H]2CN1C(=O)c1cc2c(OC(F)F)cccc2[nH]1)C(=O)CO [Compound 87, (1S,3aR,6aS)-2-[4-(difluoromethoxy)-1H-indole-2-carbonyl]-N-[(2S)-4-hydroxy-3-oxo-1-[(3S)-2-oxopyrrolidin-3-yl]butan-2-yl]-hexahydro-1H-cyclopenta[c]pyrrole-1-carboxamide] | < 100 | < 20 | < 1 | ≥ 10 | > 10 | > 10 | > 100 | – | 1 to 10 | – | – | – | – | 2 to 20 | – | – | – | – |
| COc1cc(Cl)cc2[nH]c(C(=O)N3C[C@@H]4CCC[C@@H]4[C@H]3C(=O)N[C@@H](C[C@@H]3CCNC3=O)C(=O)CO)cc12 [Compound 88, (1S,3aR,6aS)-2-(6-chloro-4-methoxy-1H-indole-2-carbonyl)-N-[(2S)-4-hydroxy-3-oxo-1-[(3S)-2-oxopyrrolidin-3-yl]butan-2-yl]-hexahydro-1H-cyclopenta[c]pyrrole-1-carboxamide] | < 100 | < 20 | < 1 | ≥ 10 | > 10 | > 10 | > 100 | – | < 1 | – | – | – | – | 2 to 20 | – | – | – | – |
| COc1ccc(Cl)c2[nH]c(C(=O)N3C[C@@H]4CCC[C@@H]4[C@H]3C(=O)N[C@@H](C[C@@H]3CCNC3=O)C(=O)CO)cc12 [Compound 89, (1S,3aR,6aS)-2-(7-chloro-4-methoxy-1H-indole-2-carbonyl)-N-[(2S)-4-hydroxy-3-oxo-1-[(3S)-2-oxopyrrolidin-3-yl]butan-2-yl]-hexahydro-1H-cyclopenta[c]pyrrole-1-carboxamide] | 100 to 1000 | – | < 1 | ≥ 10 | > 50 | > 10 | > 100 | – | < 1 | – | – | – | – | – | – | – | < 20 | > 10 |
